From US20260070887A1 (Shenzhen Zhongge Biological Technology Co., Ltd., priority 2022, published 2026)
Where two headings read alike, the source gives them in different places.

Key:
HCC1395 cells = test: HCC1395 cell proliferation (Cell Titer-Glo, 6 days); format: cell-based; details: KIF18A-insensitive tumor cells
Description: (§1) The inhibitory effect on the KIF18A target by the compounds of the present disclosure was evaluated by testing the inhibitory effect on proliferation of HCC1954 and HCC1395 cells by the compounds of the present disclosure.
(§2) HCC1954 (ATCC, CRL-2388) and HCC1395 (ATCC, CRL-2324) cells were cultured separately in RPMI-1640 complete medium (Gibco, A1049101) containing 20% fetal bovine serum (Gibco, 10099141C), 100 U penicillin, and 100 μg/mL streptomycin (Gibco, 15140-122). The Promega kit Cell Titer-Glo (Promega: G7572) was used in this method for test. • 1. HCC1954 (KIF18A-sensitive tumor cells) and HCC1395 (KIF18A-insensitive tumor cells) were cultured separately in T75 cell culture flasks (Corning, 430641), and the medium was placed in a 37° C., 5% CO2 incubator. • 2. When the cell density reached 70% to 80% (about 2 to 3 times per week), cells are passaged with trypsin (0.25% EDTA). • 3. The cell culture flask was taken out and the cells were separated by adding 2 mL of trypsin (0.25% EDTA source) for 5 minutes. • 4. Digestion was stopped by adding 8 mL of RPM1-1640 medium and the cell suspension was transferred to a centrifuge tube and centrifuged at 1000 rpm for 5 minutes. • 5. The cells were resuspended with 5 mL of RPMI-1640 medium. Cell density was adjusted to 5×10^3/mL (HCC1954), and 2.5×10^4/mL (HCC1395), respectively. • 6. 40 μL of cell solution was added to the 384-well plate (Corning, 3765). • 7. The 384-well plate was centrifuged at 1000 rpm for 1 minute. • 8. The cells were cultured overnight in a 37° C., 5% CO2 incubator. • 9. The next day, 40 nL of compound solution was added to the 384-well plate using Echo650. The plate was then placed in a 37° C., 5% CO2 incubator for 6 days. • 10. After 6 days, 20 μL of Cell-Titer-Glo (Promega, G7572) reagent was added per well. • 11. Luminescence values were measured using the EnVision Xcite Multilabel Reader (PerkinElmer, 2105-0020).
(§3) The percentage of inhibition of cell proliferation by the test compound at each concentration was calculated by comparing with the values of the control group (0.1% DMSO). The IC50 values of the compounds were obtained by concentration-inhibition rate nonlinear regression analysis of the test compounds using GraphPad Prism 9.

OVCAR-3 cells = test: OVCAR-3 cell proliferation (Cell Titer-Glo, 10 days); format: cell-based, human
Outline: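 400 cells per well were seeded onto pre-dispensed compound (final 0.12 nM to 10 μM) in RPMI-1640 with 20% FBS and insulin, then co-cultured for 10 days. Viability was read as Cell Titer-Glo luminescence, inhibition was taken against 0.1% DMSO control, and IC50 came from nonlinear concentration-inhibition regression.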

HCC1954 cells = test: HCC1954 cell proliferation (Cell Titer-Glo, 6 days); format: cell-based; details: KIF18A-sensitive tumor cells
Description: as §1, §2, §3

KIF18A = KIF18A (Homo sapiens (Human), UniProt Q8NI77); test: KIF18A ATPase activity under tubulin stimulation (ADP-Glo assay); format: biochemical; details: KIF18A 30 nM, ATP 150 μM, pig microtubules
A2780 cells = test: A2780 cell anti-proliferation assay; format: cell-based; details: Homo sapiens, A2780, 144 h, 6 days, Cell Titer-Glo
Description: A2780 (ECACC) cells were cultured in RPMI-1640 complete medium (Gibco, A1049101) containing 10% fetal bovine serum (Gibco, 10099-141C), 100 U penicillin and 100 μg/mL streptomycin (Gibco, 15140-122). The Promega kit Cell Titer-Glo (Promega: G7572) was used in this method for test.
(§4) A2780 cells were cultured in T75 cell flasks (Corning, 430641) and the cells were placed in a 37° C., 5% CO2 incubator. Cells were passaged when reaching a cell density of 70%-80%, once every five days. To perform the experiment, the test compounds were dissolved in DMSO to prepare a 10 mM stock solution, and the test compounds were added to the 384-well cell test plate (Corning, 3765) at the predetermined concentration (19.5 nM-[…]) using ECHO. A2780 cells were digested and 4000 cells (60 μL medium) were seeded per well in the test plate. The 384-well plate was then centrifuged at 500 rpm for 1 minute, and then placed in a 37° C., 5% CO2 incubator for 6 days of cultivation. Six days later, the cell culture plate was equilibrated for 10 minutes at room temperature, 25 μL of Cell Titer-Glo was added to each well, and the mixture was shaken and mixed well and let stand for 5 minutes. The luminescence values for samples in various wells were read using a microplate reader in Luminescence mode.
as §3, with “inhibition of A2780 cell proliferation” for “inhibition of cell proliferation”, “control group (0.2% DMSO). The” for “control group (0.1% DMSO). The”

HCT116 cells = test: HCT116 cell anti-proliferation assay; format: cell-based; details: Homo sapiens, HCT-116, 144 h, 6 days, Cell Titer-Glo
Description: HCT116 (ATCC, CCL-247) cells were cultured in McCoy's 5a complete medium (Gibco, 12330-031) containing 10% fetal bovine serum (Gibco, 10099-141C), 100 U penicillin and 100 μg/mL streptomycin (Gibco, 15140-122). The Promega kit Cell Titer-Glo (Promega: G7572) was used in this method for test.
as §4, with “HCT116 cells” for “A2780 cells”, “70%-80%, approximately twice per week.” for “70%-80%, once every five days.”, “ECHO. […]” for “ECHO. A2780”, “and 150” for “and 4000”
as §3, with “(0.2%” for “(0.1%”

HT-29 cells = test: HT-29 cell proliferation (Cell Titer-Glo, 6 days); format: cell-based; details: Homo sapiens, HT-29, 144 h
Description: The inhibitory effect on the KIF18A target by the compounds of the present disclosure was evaluated by testing the inhibitory effect on proliferation of HT-29 cells by the compounds of the present disclosure.
HT-29 (ATCC, HTB-38) cells were cultured in McCoy's 5a complete medium (Gibco, 12330-031) containing 10% fetal bovine serum (Gibco, 10099-141C), 100 U penicillin and […] streptomycin (Gibco, 15140-122). The Promega kit Cell Titer-Glo (Promega: G7572) was used in this method for test. • 1. HT-29 cells were cultured in T75 cell flasks (Corning, 430641) and the medium was placed in a 37° C., 5% CO2 incubator. Cells were passaged when reaching a cell density of 70%-80%, approximately twice per week. • 2. To perform the experiment, the test compounds were dissolved in DMSO to prepare a 10 mM stock solution, and the test compounds were added to the 384-well cell test plate (Corning, 3765) at the predetermined concentration using ECHO. • 3. The cell culture flask was taken out, the medium was removed, and the cells were rinsed with PBS. Then 2 mL of trypsin (with 0.25% EDTA) was added, and the flask was placed in the incubator for digestion for 4 minutes. • 4. Digestion was stopped by adding 4 mL of complete medium and the cell suspension was transferred to a centrifuge tube and centrifuged at 1000 rpm for 4 minutes. • 5. The cells were resuspended in 6 mL of complete medium, followed by cell counting. The cell density was adjusted to 4,170 cells/mL, and the cells were added to a 384-well plate at 60 μL/well. • 6. The 384-well plate was centrifuged at 500 rpm for 1 minute, and then placed in a 37° C., 5% CO2 incubator for 6 days of cultivation. • 7. Six days later, the cell culture plate was equilibrated for 10 minutes at room temperature, 25 μL of Cell Titer-Glo was added to each well, and the mixture was shaken and mixed well and let stand for 5 minutes. The luminescence values for samples in various wells were read using a microplate reader in Luminescence mode.
as §3, with “(0.3%” for “(0.1%”

Chain of KIF18A (Q8NI77 whole entry): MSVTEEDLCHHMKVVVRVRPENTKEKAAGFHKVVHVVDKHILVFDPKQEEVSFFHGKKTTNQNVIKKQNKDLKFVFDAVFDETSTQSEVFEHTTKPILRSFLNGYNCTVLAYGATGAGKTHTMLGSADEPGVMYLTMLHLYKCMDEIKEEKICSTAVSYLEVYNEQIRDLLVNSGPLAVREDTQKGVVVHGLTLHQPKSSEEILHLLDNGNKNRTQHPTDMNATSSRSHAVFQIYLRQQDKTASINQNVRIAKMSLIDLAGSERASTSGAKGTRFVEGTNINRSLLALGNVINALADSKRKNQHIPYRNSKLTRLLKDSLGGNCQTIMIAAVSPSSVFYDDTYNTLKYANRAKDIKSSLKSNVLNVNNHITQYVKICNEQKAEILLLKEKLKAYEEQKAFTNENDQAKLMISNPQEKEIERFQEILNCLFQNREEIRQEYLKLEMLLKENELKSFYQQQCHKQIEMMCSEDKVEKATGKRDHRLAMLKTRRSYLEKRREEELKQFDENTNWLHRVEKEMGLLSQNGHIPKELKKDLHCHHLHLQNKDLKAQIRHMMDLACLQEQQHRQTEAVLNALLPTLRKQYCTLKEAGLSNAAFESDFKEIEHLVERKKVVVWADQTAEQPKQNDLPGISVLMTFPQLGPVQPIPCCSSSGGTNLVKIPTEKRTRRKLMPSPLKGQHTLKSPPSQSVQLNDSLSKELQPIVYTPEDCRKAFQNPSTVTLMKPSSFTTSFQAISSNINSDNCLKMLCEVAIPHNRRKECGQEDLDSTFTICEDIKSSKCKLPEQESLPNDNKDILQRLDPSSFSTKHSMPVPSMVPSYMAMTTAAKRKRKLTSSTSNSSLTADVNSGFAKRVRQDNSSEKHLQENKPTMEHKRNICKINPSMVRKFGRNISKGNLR
Chain of KIF18A (P02550 whole entry partner): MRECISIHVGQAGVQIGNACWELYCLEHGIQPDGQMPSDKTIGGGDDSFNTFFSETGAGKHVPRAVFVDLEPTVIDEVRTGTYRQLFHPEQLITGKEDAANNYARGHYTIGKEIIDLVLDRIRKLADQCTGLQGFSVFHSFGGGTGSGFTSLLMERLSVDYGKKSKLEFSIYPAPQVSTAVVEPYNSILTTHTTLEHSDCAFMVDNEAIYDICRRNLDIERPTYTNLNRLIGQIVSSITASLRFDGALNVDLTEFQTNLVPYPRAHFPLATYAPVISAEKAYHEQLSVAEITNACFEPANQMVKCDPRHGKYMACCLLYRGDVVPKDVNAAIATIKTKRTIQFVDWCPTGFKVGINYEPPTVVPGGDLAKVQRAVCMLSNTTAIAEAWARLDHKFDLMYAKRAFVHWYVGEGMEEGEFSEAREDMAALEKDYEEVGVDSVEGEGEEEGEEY
Chain of KIF18A (P02554 whole entry partner): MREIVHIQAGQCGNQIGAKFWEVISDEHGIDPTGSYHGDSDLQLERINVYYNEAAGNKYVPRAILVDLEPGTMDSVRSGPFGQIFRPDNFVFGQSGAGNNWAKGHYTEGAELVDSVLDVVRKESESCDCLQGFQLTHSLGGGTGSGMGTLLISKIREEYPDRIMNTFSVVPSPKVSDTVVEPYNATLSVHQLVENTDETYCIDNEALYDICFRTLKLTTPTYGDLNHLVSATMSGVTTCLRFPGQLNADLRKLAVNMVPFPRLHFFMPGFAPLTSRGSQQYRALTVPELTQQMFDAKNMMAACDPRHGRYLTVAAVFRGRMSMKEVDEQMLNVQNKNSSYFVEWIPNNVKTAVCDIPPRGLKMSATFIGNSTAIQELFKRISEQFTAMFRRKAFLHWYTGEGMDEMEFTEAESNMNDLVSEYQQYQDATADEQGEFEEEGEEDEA

| SMILES | IC50 (HCC1395 cells; Homo sapiens, HCC1395, 144 h) | IC50 (OVCAR-3 cells; Homo sapiens, OVCAR-3, 240 h) | IC50 (HCC1954 cells; Homo sapiens, HCC1954, 144 h) | IC50 (KIF18A) | IC50 (HCC1395 cells) | IC50 (OVCAR-3 cells) | IC50 (HCC1954 cells) | IC50 (A2780 cells) | IC50 (HCT116 cells) | IC50 (HT-29 cells) |
| --- | --- | --- | --- | --- | --- | --- | --- | --- | --- | --- |
| O=C(Nc1cccc2c1nc1n2CCOC1)c1ccc(NS(=O)(=O)CCO)cc1N1CCC2(CC1)CC2 [Example 304, N-(3,4-dihydro-1H-benzo[4,5]imidazo[2,1-c][1,4]oxazin-9-yl)-4-((2-hydroxyethyl)sulfonamido)-2-(6-azaspiro[2.5]octan-6-yl)benzamide] | > 5 µM | ≤ 50 nM | 10 to 500 nM | ≤ 50 nM | – | – | – | – | – | – |
| O=C(Nc1cccc2c1cc1n2CCCC1)c1ccc(NS(=O)(=O)CCO)cc1N1CCC2(CC1)CC2 [Example 126, 4-((2-hydroxyethyl)sulfonamide)-2-(6-azaspiro[2.5]octan-6-yl)-N-(6,7,8,9-tetrahydropyridine[1,2-a]indole-1)benzamide] | – | – | – | ≤ 50 nM | > 5 µM | 50 to 500 nM | 10 to 500 nM | – | – | – |
| Cc1cc(NC(=O)c2c(N)cc(NS(=O)(=O)CCO)cc2N2CCC3(CC2)CC3)nc(N2CCC(F)(F)CC2)n1 [Example 3, 2-amino-N-(2-(4,4-difluoropiperidin-1-yl)-6-methylpyrimidin-4-yl)-4-(2-hydroxyethylsulfonamido)-6-(6-azaspiro[2.5]octan-6-yl)benzamide] | > 5 µM | ≤ 50 nM | ≤ 10 nM | 50 to 500 nM | – | – | – | – | – | – |
| O=C(Nc1ccnc2c1cc1n2CCOC1)c1ccc(NS(=O)(=O)CCO)cc1N1CCC2(CC1)CC2 [Example 303, N-(8,9-dihydro-6H-pyrido[3′,2′:4,5]pyrrolo[2,1-c][1,4]oxazin-4-yl)-4-((2-hydroxyethyl)sulfonamido)-2-(6-azaspiro[2.5]octan-6-yl)benzamide] | > 5 µM | 50 to 500 nM | 10 to 500 nM | ≤ 50 nM | – | – | – | – | – | – |
| O=C(Nc1cccc2c1cc1n2CCC1)c1ccc(NS(=O)(=O)CCO)cc1N1CCC2(CC1)CC2 [Example 129, N-(2,3-dihydro-1H-pyrrolo[1,2-a]indol-8-yl)-4-((2-hydroxyethyl)sulfonamide)-2-(6-azaspiro[2.5]octan-6-yl)benzamide] | – | – | – | ≤ 50 nM | > 5 µM | – | ≤ 10 nM | – | – | – |
| CC1OCCn2c1cc1c(NC(=O)c3ccc(NS(=O)(=O)CCO)cc3N3CCC(=C(F)F)CC3)cccc12 (stereo not shown) [Example 320, 2-(4-(difluoromethylene)piperidin-1-yl)-4-((2-hydroxyethyl)sulfonamido)-N-(1-methyl-3,4-dihydro-1H-[1,4]oxazino[4,3-a]indol-9-yl)benzamide] | > 5 µM | ≤ 50 nM | 10 to 500 nM | 50 to 500 nM | – | – | – | – | – | – |
| O=C(Nc1ccc(F)c2c1ccn2CC1CC1)c1ccc(NS(=O)(=O)CCO)cc1N1CCC2(CC1)CC2 [Example 56, N-(1-(cyclopropylmethyl)-7-fluoro-1H-indol-4-yl)-4-((2-hydroxyethyl)sulfonamido)-2-(6-azaspiro[2.5]octan-6-yl)benzamide] | > 5 µM | 50 to 500 nM | 10 to 500 nM | 50 to 500 nM | – | – | – | – | – | – |
| COc1ccc(NC(=O)c2ccc(NS(=O)(=O)CCO)cc2N2CCC3(CC2)CC3)c2cc3n(c12)CCOC3 [Compound 404, 4-((2-hydroxyethyl)sulfonamido)-N-(6-methoxy-3,4-dihydro-1H-[1,4]oxazinyl[4,3-a]indol-9-yl)-2-(6-azaspiro[2.5]oct-6-yl)benzamide] | – | ≤ 50 nM | – | – | – | – | – | > 10 µM | > 10 µM | ≤ 200 nM |
| Nc1cc(NS(=O)(=O)CCO)cc(N2CCC3(CC2)CC3)c1C(=O)Nc1cccc2c1ccn2CC1CC1 [Example 41] | – | – | – | 50 to 500 nM | – | 50 to 500 nM | 10 to 500 nM | – | – | – |
| CC1(C)Cc2nc3c(NC(=O)c4ccc(NS(=O)(=O)CCO)cc4N4CCC5(CC4)CC5)cccc3n2C1 [Example 490, N-(2,2-dimethyl-2,3-dihydro-1H-benzo[d]pyrrolo[1,2-a]imidazol-5-yl)-4-((2-hydroxyethyl)sulfonamido)-2-(6-azaspiro[2.5]oct-6-yl)benzamide] | – | 50 to 500 nM | 10 to 500 nM | 50 to 500 nM | – | – | – | – | – | – |
